Measurements reported in PubChem BioAssay AID2286 (Southern Research Specialized Biocontainment Screening …, 2010).
The source made the active and inactive calls.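 Rule for the calls: active = minimum cell viability of 80% or lower across the dose range, counted as toxic; inactive = minimum cell viability above 80%.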

Assay: MAGI-CCR5 and HeLa-R5-16 cytotoxicity, dose response, cytotoxicity control for HIV-1 fusion inhibitor project, cell-based, MAGI and MAGI-HeLa co-culture (AID 2286);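 note: cells exposed to compound for at least 64 h before ATP readout; 100% = median of DMSO vehicle wells with no ATP signal meaning 0%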
Conditions: MAGI-CCR5 cells viability, CellTiter-Glo ATP luminescence; for minimum viability: measured here: MAGI minimum viability across doses
[1] = MAGI-HeLa co-culture viability, at 50 µM, stronger effect = lower value
[2] = at 12.5 µM, stronger effect = lower value
[3] = at 3.13 µM, stronger effect = lower value
[4] = at 1.56 µM, stronger effect = lower value

| Structure (SMILES) | viability [1] [%] | viability (at 50 µM (top of the series)) | minimum viability (at 50 µM, stronger effect = lower value) [%] | also measured |
| --- | --- | --- | --- | --- |
| Cc1ccc(NS(=O)(=O)c2ccc(N/N=C/c3ccccc3OCC(=O)O)c([N+](=O)[O-])c2)c(C)c1 | 101 | 108% (inactive) | – | minimum viability (at 0.39 µM, stronger effect = lower value): 88.5% |
| Cc1c(CCC(=O)O)c(=O)oc2c(C)c3occ(-c4ccc(Br)cc4)c3cc12 | 97.7 | – | – | minimum viability [2]: 72.5% |
| N#Cc1c(-c2cccs2)nc(SCc2ccc(Cl)cc2)[nH]c1=O | 118 | – | 73 | – |
| N#Cc1c(SCC(=O)Nc2nc3ccc(Br)cc3s2)sc2c(O)cc(=O)[nH]c12 | 81.1 | 83.3% (inactive) | 83.3 | – |
| CCS(=O)(=O)C1=NSC2=NC(=O)/C(=C\c3ccc(OS(=O)(=O)c4ccccc4)c(OC)c3)C(=N)N21 | 101 | 80.5% (inactive) | 80.5 | – |
| O=C(O)c1cc(N/N=C/c2ccc(-c3ccccc3)cc2)ccc1Cl | 87.4 | – | 69.9 | – |
| CC(C)(C)c1ccc2c(c1)OC(C(=O)N/N=C\c1ccc(-c3cccc(C(=O)O)c3)o1)CO2 (configuration not stated) | 105 | 87.8% (inactive) | – | minimum viability [3]: 87.5% |
| O=C(CCN1C(=O)/C(=C/c2ccccc2Cl)SC1=S)Nc1ccccc1C(=O)O | 109 | 98.3% (inactive) | – | minimum viability (at 0.78 µM, stronger effect = lower value): 87.5% |
| CCCCCCc1c(C)c2ccc(OCC(=O)N[C@@H](Cc3ccccc3)C(=O)O)cc2oc1=O | 101 | 96.7% (inactive) | – | minimum viability [3]: 90.1% |
| CC(C)S(=O)(=O)C1=NSC2=NC(=O)/C(=C\c3ccc(OC(=O)c4ccco4)cc3)C(=N)N21 | 100 | 103% (inactive) | – | minimum viability [4]: 84.2% |
| O=C(N/N=C/c1cc(Cl)cc([N+](=O)[O-])c1O)c1ccccc1NS(=O)(=O)c1cccs1 | 107 | 96.6% (inactive) | – | minimum viability [2]: 92.8% |
| O=C(N/N=C/c1c(O)n(C2CCCCC2)c(=S)[nH]c1=O)c1ccccc1O | 84.7 | – | 64.3 | – |
| O=C(Nc1ccc(-c2nc3ccccc3[nH]2)cc1)c1ccccc1NS(=O)(=O)c1ccc(F)cc1 | 116 | – | 64.3 | – |
| O=C1NC(=S)N(c2ccc(F)cc2)C(=O)/C1=C/c1ccco1 | 122 | 131% (inactive) | – | minimum viability [4]: 105% |
| COc1ccc(/C=N/NC(=O)c2[nH]c3ccc(Br)cc3c2-c2ccccc2)c(C(=O)O)c1OC | 95 | 90.4% (inactive) | 90.4 | – |
| CC1=NN(c2ccc(C(=O)O)cc2)C(=O)/C1=C\c1ccc(OC(=O)c2cccs2)cc1 | 120 | 94.8% (inactive) | – | minimum viability [4]: 93.5% |
| CCCOc1ccc(C2C(C(=O)c3cc4ccccc4o3)=C(O)C(=O)N2c2cc(C)on2)cc1 (configuration not stated) | 97.9 | – | 67.9 | – |
| COc1cc(/C=C2\C(=N)N3N=C(S(C)(=O)=O)SC3=NC2=O)ccc1OS(=O)(=O)c1ccccc1 | 113 | 91.8% (inactive) | 91.8 | – |
| Cc1cc(Cl)ccc1OC(C)C(=O)Nc1ccc(S(=O)(=O)Nc2cnc3ccccc3n2)cc1 (configuration not stated) | 89.2 | – | 72.9 | – |
| O=C(N/N=C/c1cc(Br)c(O)c(Br)c1)c1cc2c(ccc3ccccc32)o1 | 112 | – | – | viability (at 25 µM (top of the series)): 81.4% (inactive); minimum viability (at 25 µM, stronger effect = lower value): 81.4% |
| COC(=O)c1sc(-c2ccc(C(C)(C)C)cc2)cc1NC(=O)CSCC(=O)O | 105 | 83.5% (inactive) | 83.5 | – |
| CCCOc1ccc(C(=O)NNC(=S)NC(=O)c2cc(-c3ccc(Cl)cc3)nc3ccccc23)cc1 | 89.5 | 98% (inactive) | – | minimum viability [3]: 87.2% |
| Cc1c(Cl)cccc1NS(=O)(=O)c1ccc2c(c1)C1C=CCC1C(c1ccc(C(=O)O)cc1)N2 (configuration not stated) | 121 | 91% (inactive) | – | minimum viability [4]: 87% |
| O=C(Nc1ccc(Br)cc1C(=O)O)c1ccc2c(c1)C(=O)N(Cc1ccccc1)C2=O | 101 | 105% (inactive) | – | minimum viability [4]: 82.6% |
| O=C(O)c1cc(-c2ccc(/C=N/Nc3ccc(Cl)cc3)o2)ccc1Cl | 87.3 | – | 62 | – |
| Cc1ccc(/C=C2\SC(=S)N(CCCC(=O)Nc3ccccc3C(=O)O)C2=O)cc1 | 127 | – | 63.9 | – |
| O=C(O)CCN1C(=O)/C(=C\c2cccc(Oc3ccccc3)c2)SC1=S | 90.5 | 87.3% (inactive) | – | minimum viability (at 25 µM, stronger effect = lower value): 86.3% |
